These results are taken from patent US7342027B2 (Yuhan Corporation, priority 2002, dated 2008).

Counter-ions that a name gives are not always drawn.

This assay has as its target T1, Recombinant human cathepsin K (Homo sapiens, UniProt P43235).
T1 construct: made in house
T1 sequence (P43235 115-329): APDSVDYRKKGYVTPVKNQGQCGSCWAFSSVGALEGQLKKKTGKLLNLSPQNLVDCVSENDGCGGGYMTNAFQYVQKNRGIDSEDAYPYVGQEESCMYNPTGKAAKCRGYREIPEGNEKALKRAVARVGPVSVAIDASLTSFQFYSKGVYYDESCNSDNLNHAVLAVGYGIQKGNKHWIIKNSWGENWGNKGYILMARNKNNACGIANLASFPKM
In words: Inhibition of cathepsin K activity (Z-Phe-Arg-AMC fluorescence assay). It is filed as biochemical. Conditions: 25 uM Z-Phe-Arg-AMC, pH 5.5, 1 hour at 37° C. The method, then: Test 1: Inhibition of Cathepsin K Activity
Recombinant human cathepsin K was prepared in accordance with Biol, Pharm. Bull, 19(8), 1026-1031 (1996) and J. Biol. Chem. 271, 2126-2132 (1996). Stock solutions of 2.5 mM Z-Phe-Arg-AMC (BACHEM, 1-1160) and all inhibitors were prepared in dimethyl sulfoxide. In vitro assays for cathepsin K were conducted with 25 uM Z-Phe-Arg-AMC as a substrate at pH 5.5 in 100 mM Na acetate buffer containing 20 mM cysteine and 5 mM EDTA in the presence of 2% final concentration of DMSO. Reaction was initiated by the addition of enzyme to samples, which were then incubated for 1 hour at 37° C. The fluorescence was monitored at 460 nm (excitation wavelength 360 nm) using fluorescence plate reader.
The concentrations of the test compounds, which inhibit 50% of cathepsin K activity, are represented as IC50 in Table 1.

For the compound `O=C(NC1(C(=O)NC2CCN(c3ccc(F)cc3N3CCCC3=O)CC2=O)CCCCC1)c1ccc(OCCN2CCOCC2)cc1` (centres unmarked) [Example 170, 4-[N-[1-[N-(4-(2-morpholinethoxy)benzoyl)amino]cyclohexanecarbonyl]amino]-1-[4-fluoro-2-(pyrrolidin-2-one-1-yl)phenyl]piperidin-3-one], the IC50 was determined as 1.69 nM.

Regarding `CS(=O)(=O)c1ccccc1N1CCC(NC(=O)C2(NC(=O)c3cc4cc(OCCN5CCCCC5)ccc4o3)CCCCC2)C(=O)C1` (centres unmarked) [Example 166, 4-[N-[1-[N-(5-(2-piperidinethoxy)benzofuran-2-ylcarbonyl)amino]cyclohexanecarbonyl]amino]-1-(2-methanesulfonylphenyl)piperidin-3-one hydrochloride], the IC50 was found to be 0.71 nM.

On to `CS(=O)(=O)c1ccccc1N1CCC(NC(=O)C2(NC(=O)c3cc4cc(OCCN5CCOCC5)ccc4o3)CCCCC2)C(=O)C1` (centres unmarked) [Example 161, 4-[N-[1-[N-(5-(2-morpholinethoxy)benzofuran-2-ylcarbonyl)amino]cyclohexanecarbonyl]amino]-1-(2-methanesulfonylphenyl)piperidin-3-one], for which the half-inhibitory concentration (IC50) turned out to be 0.41 nM.

With `O=C(CCc1ccccc1)Nc1ccccc1N1CCC(NC(=O)C2(NC(=O)c3cc4ccccc4o3)CCCCC2)C(=O)C1` (centres unmarked) [Example 54, 4-[N-[1-[N-(benzofuran-2-ylcarbonyl)amino]cyclohexanecarbonyl]amino]-1-[2-[N-(3-phenylpropionyl)amino]phenyl]piperidin-3-one], the IC50 worked out at 6.09 nM.

Consider `O=C(NC1(C(=O)NC2CCN(c3ccccc3-n3cnnn3)CC2=O)CCCCC1)c1cc2ccccc2o1` (centres unmarked) [Example 58, 4-[N-[1-[N-(benzofuran-2-ylcarbonyl)amino]cyclohexanecarbonyl]amino]-1-[2-(tetrazol-1-yl)phenyl]piperidin-3-one], for which the half-maximal inhibitory concentration (IC50) was found to be 4.82 nM.

As to `CCN(CC)c1ccc(C(=O)NC2(C(=O)NC3CCN(c4ccc(F)cc4S(C)(=O)=O)CC3=O)CCCCC2)cc1` (centres unmarked) [Example 172, 4-[N-[1-[N-(4-(diethylamino)benzoyl)amino]cyclohexanecarbonyl]amino]-1-(4-fluoro-2-methanesulfonylphenyl)piperidin-3-one], the IC50 is 0.58 nM.

In the case of `N#Cc1c(F)cccc1N1CCC(NC(=O)C2(NC(=O)c3cc4ccccc4o3)CCCCC2)C(=O)C1` (centres unmarked) [Example 8, 4-[N-[1-[N-(benzofuran-2-ylcarbonyl)amino]cyclohexanecarbonyl]amino]-1-(2-cyano-3-fluorophenyl)piperidin-3-one], the IC50 amounted to 10.4 nM.

In the case of `Cc1ccsc1C(=O)NC1(C(=O)NC2CCN(c3ccccc3S(C)(=O)=O)CC2=O)CCCCC1` (centres unmarked) [Example 121, 4-[N-[1-[N-(3-methyl-thiophen-2-ylcarbonyl)amino]cyclohexanecarbonyl]amino]-1-(2-methanesulfonylphenyl)piperidin-3-one], the half-inhibitory concentration (IC50) turned out to be 7.73 nM.

Take `O=C(NC1(C(=O)NC2CCN(c3ccc(F)cc3-n3cccc3)CC2=O)CCCCC1)c1ccco1` (centres unmarked) [Example 99, 4-[N-[1-[N-(furan-2-ylcarbonyl)amino]cyclohexanecarbonyl]amino]-1-[4-fluoro-2-(pyrrol-1-yl)phenyl]piperidin-3-one]: the IC50 is 4.41 nM.

Consider `CC(C)Oc1ccccc1N1CCC(NC(=O)C2(NC(=O)c3cc4ccccc4o3)CCCCC2)C(=O)C1` (centres unmarked) [Example 41, 4-[N-[1-[N-(benzofuran-2-ylcarbonyl)amino]cyclohexanecarbonyl]amino]-1-(2-isopropoxyphenyl)piperidin-3-one], for which the IC50 is 7.73 nM.

Take `Cc1cc(C(=O)NC2(C(=O)NC3CCN(c4ccccc4S(C)(=O)=O)CC3=O)CCCCC2)oc1C` (centres unmarked) [Example 125, 4-[N-[1-[N-(4,5-dimethyl-furan-2-ylcarbonyl)amino]cyclohexanecarbonyl]amino]-1-(2-methanesulfonylphenyl)piperidin-3-one]: the IC50 is 6.8 nM.

Broadly, the IC50 is the concentration at which inhibition is half-maximal.
